How the values were obtained:
[1] = target: T1, Alkaline phosphatase, tissue-nonspecific isozyme (Rattus norvegicus) (UniProt P08289); assay: (§1) Hepatoprotective activity against alkaline phosphatase (ALP) for thioacetamide-induced toxicity in rats at 6 mg/kg dose for 7 days by ip administration; assay type: functional, organism-based; parameters: dose 6 mg/kg
T1 sequence (whole entry): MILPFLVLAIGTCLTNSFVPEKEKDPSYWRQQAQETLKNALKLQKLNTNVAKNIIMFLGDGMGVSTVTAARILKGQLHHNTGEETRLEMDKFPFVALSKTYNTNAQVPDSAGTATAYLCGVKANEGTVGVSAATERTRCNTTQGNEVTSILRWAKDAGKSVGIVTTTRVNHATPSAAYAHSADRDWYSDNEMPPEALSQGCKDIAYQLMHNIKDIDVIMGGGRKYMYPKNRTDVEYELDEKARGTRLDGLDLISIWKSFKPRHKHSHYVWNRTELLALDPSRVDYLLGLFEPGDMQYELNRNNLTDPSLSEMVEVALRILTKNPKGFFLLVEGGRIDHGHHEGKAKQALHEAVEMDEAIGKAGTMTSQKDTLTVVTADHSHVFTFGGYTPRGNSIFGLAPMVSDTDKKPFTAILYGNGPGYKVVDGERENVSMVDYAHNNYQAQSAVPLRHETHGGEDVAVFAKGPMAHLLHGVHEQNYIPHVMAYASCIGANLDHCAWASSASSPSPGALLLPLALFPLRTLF

Rattus norvegicus [2] = assay: Hepatoprotective activity against bilirubin for thioacetamide-induced toxicity in rats at 6 mg/kg dose for 7 days by ip administration; assay type: functional
[3] = target: T2, Alanine aminotransferase 1 (Rattus norvegicus) (UniProt P25409); assay: (§2) Hepatoprotective activity against glutamate pyruvate transaminase (GTP) for thioacetamide-induced toxicity in rats at 6 mg/kg dose for 7 days by ip administration; assay type: functional, organism-based; parameters: dose 6 mg/kg
T2 sequence (whole entry): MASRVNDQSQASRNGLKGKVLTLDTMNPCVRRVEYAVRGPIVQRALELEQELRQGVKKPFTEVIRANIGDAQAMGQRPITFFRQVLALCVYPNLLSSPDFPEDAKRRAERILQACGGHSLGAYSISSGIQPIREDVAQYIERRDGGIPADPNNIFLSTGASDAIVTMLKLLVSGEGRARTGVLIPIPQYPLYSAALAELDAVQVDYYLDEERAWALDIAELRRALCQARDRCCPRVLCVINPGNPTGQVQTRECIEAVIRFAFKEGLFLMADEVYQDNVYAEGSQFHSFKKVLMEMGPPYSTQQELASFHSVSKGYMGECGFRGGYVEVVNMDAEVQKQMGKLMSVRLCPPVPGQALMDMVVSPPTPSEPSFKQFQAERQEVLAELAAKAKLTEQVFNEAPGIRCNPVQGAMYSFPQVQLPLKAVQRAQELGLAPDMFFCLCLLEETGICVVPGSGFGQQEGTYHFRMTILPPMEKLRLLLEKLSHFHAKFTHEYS

[4] = Hepatoprotective activity against glutamate oxaloacetate transaminase (GOT) for thioacetamide-induced toxicity in rats at 6 mg/kg dose for 7 days by ip administration; assay type: functional
[5] = target: Alkaline phosphatase, tissue-nonspecific isozyme (Rattus norvegicus) (UniProt P08289); assay: as §1; assay type: functional, organism-based; parameters: dose 6 mg/kg; remark: listed apart in the source
[6] = target: Alanine aminotransferase 1 (Rattus norvegicus) (UniProt P25409); assay: as §2; assay type: functional, organism-based; parameters: dose 6 mg/kg; remark: listed apart in the source
[7] = Lethal dose administered perorally in rats in various models of liver injuries; assay type: toxicity; conditions: rat, in vivo, po
Rattus norvegicus [8] = assay: Effective dose administered perorally in rats in various models of liver injuries; assay type: functional

| Molecule | Protection [1] | Protection (Rattus norvegicus [2]; route intraperitoneal) | Protection [3] | Protection ([4]; route intraperitoneal) | Protection [5] | Protection (Rattus norvegicus [2]) | Protection [6] | Protection [4] | LD50 [7] | ED (Rattus norvegicus [8]) |
| --- | --- | --- | --- | --- | --- | --- | --- | --- | --- | --- |
| N#Cc1c(N)oc(-c2ccccc2)n/c1=N\N | 12% | 0% | 19% | 17% |  |  |  |  |  |  |
| CCOC(=O)c1c(SC)nc(C(F)(F)F)oc1=N | 28% | 14% | 54% | 66% |  |  |  |  |  |  |
| CSc1nc(-c2ccccc2)oc(=N)c1C#N | 30% | 19% | 19% | 26% |  |  |  |  |  |  |
| SILYMARIN |  |  |  |  | 47% | 61% | 47.2% | 50.1% |  |  |
| CCOC(=O)c1c(SC)nc(-c2ccccc2)oc1=N | 41% | 33% | 39% | 33% |  |  |  |  |  |  |
| CCOC(=O)c1c(SC)nc(C)oc1=N | 36% | 11% | 29% | 26% |  |  |  |  |  |  |
| COc1ccn(C)c(=O)c1C#N [RICININE] |  |  |  |  |  |  |  |  | 80 mg/kg | 6 mg/kg |

— ChEMBL document CHEMBL1128863, “6-Imino-1,3-oxazines: a new class of hepatoprotectants” (Bioorg Med Chem Lett, 1995)
